From patent US20030059857A1, “G-protein coupled receptor and methods” (priority 2001, published 2003)

Columns and labels:
Assay type in all cases: cell-based
SP174 receptor [1] = target: T1, SP174 receptor (Homo sapiens, UniProt Q9BPV8); experiment: SP174 receptor ligand identification, Ca2+ FLIPR in transfected mammalian cells (description section); design: expressed in transfected cells; conditions: values given in the description; SP174 in pcDNA3.1 transfected into mammalian cells; read-out: EC50 for SP174 (agonists)
T1 sequence (Q9BPV8 1-333 isoform Q9BPV8-2): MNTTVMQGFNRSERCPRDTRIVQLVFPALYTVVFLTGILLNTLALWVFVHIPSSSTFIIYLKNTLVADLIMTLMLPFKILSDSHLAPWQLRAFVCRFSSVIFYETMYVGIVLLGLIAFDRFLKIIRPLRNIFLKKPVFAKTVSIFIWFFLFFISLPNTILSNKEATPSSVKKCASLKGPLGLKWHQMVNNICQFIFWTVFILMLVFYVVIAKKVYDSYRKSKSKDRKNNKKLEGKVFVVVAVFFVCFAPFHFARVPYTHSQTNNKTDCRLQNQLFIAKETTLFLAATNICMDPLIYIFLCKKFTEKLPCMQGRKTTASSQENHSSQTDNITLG
Procedure: (§1) In order to identify SP174 receptor ligands the SP174 open reading frame was subcloned into the pcDNA3.1 expression vector under the control of the CMV promoter and transfected into mammalian cells. After allowing two days for receptor expression, the transfected cells were seeded into 96 well plates, loaded with the Ca^2+ sensitive Fluo-3AM dye and challenged with various compounds. The peak increments in Ca^2+ evoked by the test compounds were measured using the Fluorometric Imaging Plate Reader (FLIPR) system.

SP174 receptor [2] = target: T1, SP174 receptor; experiment: FLIPR assay, HEK293f cells transiently co-transfected with SP174 receptor and chimera G protein Gq/i3; design: expressed in transfected cells; host or cells: HEK293f cells (G-418-resistant HEK293), transient, lipofectamine; conditions: Example 1; for specific activity on SP174 transfected cells (FLIPR screen of ligand collection): versus vector/Gq/i3 negative control; for EC50: HEK293f cells co-transfected with SP174 and Gq/i3
Source text: SP174 receptor cDNA was subcloned into the pcDNA3.1 expression vector (Invitrogen) and transiently co-transfected with chimera G protein Gq/i3 into HEK293f cells using lipofectamine (Gibco-BRL). HEK293f cells are the HEK293 cells which are resistant to G-418. Chimera G protein Gq/i3 was constructed by replacing the C-terminus five amino acid residues of human Gqa with the five amino acid residue of human Gi3a (Conklin et al., Nature, 363, p274-276). pcDNA 3.1 vector DNA was also co-transfected with chimera G protein Gq/i3 as a negative control. The transfected cells were seeded into 96 well plates and incubated overnight at 37° C. in a tissue culture incubator. The growth medium was aspirated and replaced with […] of loading medium (DMEM containing 1% FBS, […]/10% pluronic acid and 2.5 mM Probenecid) and incubated for 1 hour at 37° C. The cells were subsequently washed 3 times with Hank's BSS buffer containing 20 mM HEPES, 2.5 mM Probenecid, and 0.1% BSA using the gentle setting in a Denley cell washer (Denley Instruments). The washed cells were placed in a Fluorometric Imaging Plate Reader (FLIPR) and changes in cellular fluorescence recorded after the addition of various dilutions of tissue extract fractions.
EC50 values for ADP, ADPβS, 2-MeS-ADP, 2-MeS-ATP, 2-Cl-ATP and IDP were […], respectively, and the order of potency was 2-MeS-ATP=2-MeS-ADP>ADP=ADPβS>IDP.
The SP174 receptor assay was similar as Example 1 a. The SP174 receptor cDNA was subcloned into the pcDNA3.1 expression vector (Invitrogen) and transiently co-transfected with Gq/i3 into HEK293f cells using lipofectamine (Gibco-BRL). pcDNA 3.1 vector DNA was also co-transfected with Gq/i3 as a negative control. A variety of nucleotides, RBI small moleculars, and in-house peptide collection were screened. Twelve compounds were identified to be the agonists of the SP174 receptor. Their fluorecence change with different amount of the compounds were detected, the data were processed using Prism software to obtain their EC50 value. Other agonists can be identified using similar approaches. To identify antagonists of the SP174 receptor, two-addition approach was adapted. First, the compounds to be screened were added to the SP174 receptor transfected cells, after 5 minutes 100 nM of ADP were added as second addition and the fluorescence changes were recorded. In this assay antagonists inhibit the fluorecence signal of ADP.

SP174 receptor [3] = target: T1, SP174 receptor; experiment: cAMP assay (inhibition of adenylyl cyclase) in SP174 receptor cells; design: expressed in transfected cells
Procedure: as §1, with “system. The endogenous ligand of the SP174 receptor was purified from rat spinal cords using a series of chromatography steps and its structure was identified as being ADP by Mass spectroscopy. […] In addition to ADP, other agonists were also identified for SP174.” for “system.”
The SP174 receptor cDNA was stably transfected into HEK293f cells according standard procedures. The SP174 receptor stable cell line and wild type cell grown on 12-well plates were incubated for 2 hr with 200 μl of medium plus 5 μCi of [3H]adenine/ml. Then 50 μl of Hepes (250 mM, pH 7.5, 50 μM Forskolin, 200 μM IBMX) with the compound to be screened is added to the cells and incubated for 10 minutes at 37° C. Incubations were terminated by addition of 0.8 ml of 5% trichloroacetic acid. [^3H]cAMP was purified using Dowex and alumina chromatography as previously described (Harden et al., Mol. Pharmacol. 21:570-580, 1982).

In the case of `Nc1ncnc2c1ncn2[C@@H]1O[C@H](COP(=O)(O)OP(=O)(O)OP(=O)(O)OC[C@H]2O[C@@H](n3cnc4c(N)ncnc43)[C@H](O)[C@@H]2O)[C@@H](O)[C@H]1O` [AP3A], the EC50 (SP174 receptor [1]) is reported as 8 nM and the “specific activity on SP174 transfected cells (FLIPR screen of ligand collection)” value (“specific activity” for short) (SP174 receptor [2]) is reported as “specifically active”.

For `Nc1ncnc2c1ncn2[C@@H]1O[C@H](COP(=O)(O)OP(O)(O)=S)[C@@H](O)[C@H]1O` [ADPβS], the EC50 (SP174 receptor [1]) was 8 nM, the EC50 (SP174 receptor [2]) was 43 nM and the “specific activity” value (SP174 receptor [2]) was “specifically active”.

`CSc1nc(N)c2ncn([C@@H]3O[C@H](COP(=O)(O)OP(=O)(O)OP(=O)(O)O)[C@@H](O)[C@H]3O)c2n1` [2-MeS-ATP] showed an EC50 (SP174 receptor [1]) of 8 nM and an EC50 (SP174 receptor [2]) of 97 nM.

With `Nc1ncnc2c1ncn2[C@@H]1O[C@H](COP(=O)(O)OP(=O)(O)OP(O)(O)=S)[C@@H](O)[C@H]1O` [ATPγS] the EC50 (SP174 receptor [1]) was 8 nM.

In the case of `Nc1ncnc2c1ncn2[C@@H]1O[C@H](COP(=O)(O)OP(=O)(O)O)[C@@H](O)[C@H]1O` [ADP], the EC50 (SP174 receptor [1]) is reported as 1.6 nM, the “mode of activation of the SP174 receptor” value (SP174 receptor [3]) is reported as “inhibition of adenylyl cyclase” and the EC50 (SP174 receptor [2]) is reported as 80 nM. The “specific activity” value (SP174 receptor [2]) was “activate specifically”.

`Nc1nc(Cl)nc2c1ncn2[C@@H]1O[C@H](COP(=O)(O)OP(=O)(O)OP(=O)(O)O)[C@@H](O)[C@H]1O` [2-Cl-ATP] gave an EC50 (SP174 receptor [1]) of 8 nM and an EC50 (SP174 receptor [2]) of 94 nM.

Work on `O=c1[nH]cnc2c1ncn2[C@@H]1O[C@H](COP(=O)(O)OP(=O)(O)O)[C@@H](O)[C@H]1O` [IDP] yielded an EC50 (SP174 receptor [1]) of 200 nM and an EC50 (SP174 receptor [2]) of 196 nM.

`CSc1nc(N)c2ncn([C@@H]3O[C@H](COP(=O)(O)OP(=O)(O)O)[C@@H](O)[C@H]3O)c2n1` [2-MeS-ADP] was tested, and the EC50 (SP174 receptor [1]) was 0.32 nM, the EC50 (SP174 receptor [2]) was 21 nM and the “specific activity” value (SP174 receptor [2]) was “specifically active”.

Compound `Nc1ncnc2c1ncn2[C@@H]1O[C@H](COP(=O)(O)OP(=O)(O)OP(=O)(O)O)[C@@H](O)[C@H]1O` [ATP] has an EC50 (SP174 receptor [1]) of 0.32 nM.

For `Nc1nc(Cl)nc2c1ncn2[C@@H]1O[C@H](COP(=O)(O)OP(=O)(O)O)[C@@H](O)[C@H]1O` [2-Cl-ADP], the “specific activity” value (SP174 receptor [2]) was “specifically active”.
